Data reported in ChEMBL document CHEMBL3885881, “DrugMatrix”.

Species on record: Rattus norvegicus
Experiment: DrugMatrix - Regimen: Daily Repeat
Format: toxicity, organism-based, Sprague-Dawley
Set-up: regimen Daily Repeat, gender Male, age 6-8 weeks
Conditions: in vivo, po, route oral GAVAGE; for BASOPHIL / EOSINOPHIL / ERYTHROCYTE COUNT / HEMATOCRIT / HEMOGLOBIN / LEUKOCYTE COUNT / LYMPHOCYTE / MEAN CORPUSCULAR HEMOGLOBIN / MEAN CORPUSCULAR HEMOGLOBIN CONCENTRATION / MEAN CORPUSCULAR VOLUME / MONOCYTE / NEUTROPHIL / PLATELET COUNT: tissue Blood; for ALANINE AMINOTRANSFERASE / ALBUMIN / ALKALINE PHOSPHATASE / ASPARTATE AMINOTRANSFERASE / BLOOD UREA NITROGEN / CARBON DIOXIDE / CHLORIDE / CHOLESTEROL / CREATINE PHOSPHOKINASE / CREATININE / GLUCOSE / LACTATE DEHYDROGENASE / LIPASE / PHOSPHORUS / POTASSIUM / SODIUM / TOTAL BILIRUBIN / TOTAL PROTEIN / URIC ACID: tissue Plasma
[1] = 0 mg/kg, 72 h, dose level Control, time 3 day, vehicle .5 % CMC
[2] = 0 mg/kg, 120 h, dose level Control, time 5 day, vehicle .5 % CMC
[3] = 0 mg/kg, […], dose level Control, time 14 day, vehicle .5 % CMC
[4] = 20 mg/kg, 72 h, dose level High, time 3 day, vehicle 100 % WATER
[5] = 20 mg/kg, 120 h, dose level High, time 5 day, vehicle 100 % WATER
[6] = 20 mg/kg, […], dose level High, time 14 day, vehicle 100 % WATER

## O=[N+]([O-])c1ccccc1 [NITROBENZENE]
[1]
  BASOPHIL: 0.62%
  EOSINOPHIL: 0.52%
  ERYTHROCYTE COUNT: 6.33 x10E6/uL
  HEMATOCRIT: 41.88%
  HEMOGLOBIN: 13.52 G/DL
  LEUKOCYTE COUNT: 11.39 x10E3/uL
  LYMPHOCYTE: 86.18%
  MEAN CORPUSCULAR HEMOGLOBIN: 21.35 pg
  MEAN CORPUSCULAR HEMOGLOBIN CONCENTRATION: 32.23 G/DL
  MEAN CORPUSCULAR VOLUME: 66.25 fL
  MONOCYTE: 1.93%
  NEUTROPHIL: 9.1%
  PLATELET COUNT: 1204.5 x10E3/uL
  ALANINE AMINOTRANSFERASE: 43 u/L
  ALBUMIN: 4.08 G/DL
  ALKALINE PHOSPHATASE: 426.33 u/L
  ASPARTATE AMINOTRANSFERASE: 72.5 u/L
  BLOOD UREA NITROGEN: 16.67 mg/dL
  CARBON DIOXIDE: 28.33 mmol/L
  CHLORIDE: 103.5 MEQ/L
  CHOLESTEROL: 78.83 mg/dL
  CREATINE PHOSPHOKINASE: 325.67 u/L
  CREATININE: 0.48 mg/dL
  GLUCOSE: 171.67 mg/dL
  LACTATE DEHYDROGENASE: 107.33 u/L
  LIPASE: 11.83 u/L
  PHOSPHORUS: 12.55 mg/dL
  POTASSIUM: 6.57 MEQ/L
  SODIUM: 145.67 MEQ/L
  TOTAL BILIRUBIN: 0.42 mg/dL
  TOTAL PROTEIN: 6.1 G/DL
  URIC ACID: 1.57 mg/dL
[2]
  BASOPHIL: 0.48%
  EOSINOPHIL: 0.67%
  ERYTHROCYTE COUNT: 6.69 x10E6/uL
  HEMATOCRIT: 44.17%
  HEMOGLOBIN: 13.78 G/DL
  LEUKOCYTE COUNT: 7.86 x10E3/uL
  LYMPHOCYTE: 85.9%
  MEAN CORPUSCULAR HEMOGLOBIN: 20.6 pg
  MEAN CORPUSCULAR HEMOGLOBIN CONCENTRATION: 31.25 G/DL
  MEAN CORPUSCULAR VOLUME: 65.9 fL
  MONOCYTE: 3.27%
  NEUTROPHIL: 8.67%
  PLATELET COUNT: 1182.33 x10E3/uL
  ALANINE AMINOTRANSFERASE: 37.5 u/L
  ALBUMIN: 4 G/DL
  ALKALINE PHOSPHATASE: 348.17 u/L
  ASPARTATE AMINOTRANSFERASE: 71.67 u/L
  BLOOD UREA NITROGEN: 13 mg/dL
  CARBON DIOXIDE: 27 mmol/L
  CHLORIDE: 104.67 MEQ/L
  CHOLESTEROL: 73.33 mg/dL
  CREATINE PHOSPHOKINASE: 211.33 u/L
  CREATININE: 0.23 mg/dL
  GLUCOSE: 155 mg/dL
  LACTATE DEHYDROGENASE: 133.83 u/L
  LIPASE: 11.17 u/L
  PHOSPHORUS: 14.53 mg/dL
  POTASSIUM: 6.65 MEQ/L
  SODIUM: 148.17 MEQ/L
  TOTAL BILIRUBIN: 0.28 mg/dL
  TOTAL PROTEIN: 6.22 G/DL
  URIC ACID: 1.57 mg/dL
[3]
  BASOPHIL: 0.97%
  EOSINOPHIL: 0.8%
  ERYTHROCYTE COUNT: 7.02 x10E6/uL
  HEMATOCRIT: 44.43%
  HEMOGLOBIN: 14.58 G/DL
  LEUKOCYTE COUNT: 16.49 x10E3/uL
  LYMPHOCYTE: 79.03%
  MEAN CORPUSCULAR HEMOGLOBIN: 20.85 pg
  MEAN CORPUSCULAR HEMOGLOBIN CONCENTRATION: 32.78 G/DL
  MEAN CORPUSCULAR VOLUME: 63.57 fL
  MONOCYTE: 1.9%
  NEUTROPHIL: 15.18%
  PLATELET COUNT: 1184.33 x10E3/uL
  ALANINE AMINOTRANSFERASE: 43 u/L
  ALBUMIN: 4.25 G/DL
  ALKALINE PHOSPHATASE: 409.67 u/L
  ASPARTATE AMINOTRANSFERASE: 84.17 u/L
  BLOOD UREA NITROGEN: 16 mg/dL
  CARBON DIOXIDE: 35.17 mmol/L
  CHLORIDE: 99.83 MEQ/L
  CHOLESTEROL: 68.67 mg/dL
  CREATINE PHOSPHOKINASE: 384.17 u/L
  CREATININE: 0.43 mg/dL
  GLUCOSE: 160 mg/dL
  LACTATE DEHYDROGENASE: 115.33 u/L
  LIPASE: 17.33 u/L
  PHOSPHORUS: 10.68 mg/dL
  POTASSIUM: 6.48 MEQ/L
  SODIUM: 148.17 MEQ/L
  TOTAL BILIRUBIN: 0.45 mg/dL
  TOTAL PROTEIN: 6.57 G/DL
  URIC ACID: 1.78 mg/dL

## C=CC=O [ACROLEIN]
[4]
  BASOPHIL: 0.17%
  EOSINOPHIL: 1.23%
  ERYTHROCYTE COUNT: 6.79 x10E6/uL
  HEMATOCRIT: 44.43%
  HEMOGLOBIN: 14.33 G/DL
  LEUKOCYTE COUNT: 13.23 x10E3/uL
  LYMPHOCYTE: 50.33%
  MEAN CORPUSCULAR HEMOGLOBIN: 21.17 pg
  MEAN CORPUSCULAR HEMOGLOBIN CONCENTRATION: 32.27 G/DL
  MEAN CORPUSCULAR VOLUME: 65.47 fL
  MONOCYTE: 5.93%
  NEUTROPHIL: 40.03%
  PLATELET COUNT: 1336 x10E3/uL
  ALANINE AMINOTRANSFERASE: 33.67 u/L
  ALBUMIN: 3.47 G/DL
  ALKALINE PHOSPHATASE: 159 u/L
  ASPARTATE AMINOTRANSFERASE: 72.67 u/L
  BLOOD UREA NITROGEN: 13 mg/dL
  CARBON DIOXIDE: 27.67 mmol/L
  CHLORIDE: 105.67 MEQ/L
  CHOLESTEROL: 122.33 mg/dL
  CREATINE PHOSPHOKINASE: 216.67 u/L
  CREATININE: 0.43 mg/dL
  GLUCOSE: 151.67 mg/dL
  LACTATE DEHYDROGENASE: 35 u/L
  LIPASE: 24.33 u/L
  PHOSPHORUS: 11.6 mg/dL
  POTASSIUM: 5.87 MEQ/L
  SODIUM: 148 MEQ/L
  TOTAL BILIRUBIN: 0.27 mg/dL
  TOTAL PROTEIN: 5.43 G/DL
  URIC ACID: 1.27 mg/dL
[5]
  BASOPHIL: 0.23%
  EOSINOPHIL: 0.37%
  ERYTHROCYTE COUNT: 7 x10E6/uL
  HEMATOCRIT: 45.17%
  HEMOGLOBIN: 14.17 G/DL
  LEUKOCYTE COUNT: 18.4 x10E3/uL
  LYMPHOCYTE: 56.63%
  MEAN CORPUSCULAR HEMOGLOBIN: 20.2 pg
  MEAN CORPUSCULAR HEMOGLOBIN CONCENTRATION: 31.37 G/DL
  MEAN CORPUSCULAR VOLUME: 64.53 fL
  MONOCYTE: 5.23%
  NEUTROPHIL: 35.47%
  PLATELET COUNT: 1464.67 x10E3/uL
  ALANINE AMINOTRANSFERASE: 36.33 u/L
  ALBUMIN: 3.33 G/DL
  ALKALINE PHOSPHATASE: 202.33 u/L
  ASPARTATE AMINOTRANSFERASE: 71 u/L
  BLOOD UREA NITROGEN: 15 mg/dL
  CARBON DIOXIDE: 23.67 mmol/L
  CHLORIDE: 110.33 MEQ/L
  CHOLESTEROL: 106 mg/dL
  CREATINE PHOSPHOKINASE: 207.67 u/L
  CREATININE: 0.27 mg/dL
  GLUCOSE: 140 mg/dL
  LACTATE DEHYDROGENASE: 58 u/L
  LIPASE: 40.33 u/L
  PHOSPHORUS: 11.4 mg/dL
  POTASSIUM: 5.6 MEQ/L
  SODIUM: 152.33 MEQ/L
  TOTAL BILIRUBIN: 0.23 mg/dL
  TOTAL PROTEIN: 5.37 G/DL
  URIC ACID: 1.73 mg/dL
[6]
  BASOPHIL: 0.9%
  EOSINOPHIL: 0.5%
  ERYTHROCYTE COUNT: 7.34 x10E6/uL
  HEMATOCRIT: 43.1%
  HEMOGLOBIN: 14.5 G/DL
  LEUKOCYTE COUNT: 33.86 x10E3/uL
  LYMPHOCYTE: 32.7%
  MEAN CORPUSCULAR HEMOGLOBIN: 19.8 pg
  MEAN CORPUSCULAR HEMOGLOBIN CONCENTRATION: 33.6 G/DL
  MEAN CORPUSCULAR VOLUME: 58.8 fL
  MONOCYTE: 5.2%
  NEUTROPHIL: 59.1%
  PLATELET COUNT: 2095 x10E3/uL
  ALANINE AMINOTRANSFERASE: 40 u/L
  ALBUMIN: 3.6 G/DL
  ALKALINE PHOSPHATASE: 220 u/L
  ASPARTATE AMINOTRANSFERASE: 68 u/L
  BLOOD UREA NITROGEN: 13 mg/dL
  CARBON DIOXIDE: 31 mmol/L
  CHLORIDE: 101 MEQ/L
  CHOLESTEROL: 116 mg/dL
  CREATINE PHOSPHOKINASE: 267 u/L
  CREATININE: 0.4 mg/dL
  GLUCOSE: 145 mg/dL
  LACTATE DEHYDROGENASE: 109 u/L
  LIPASE: 33 u/L
  PHOSPHORUS: 9.2 mg/dL
  POTASSIUM: 6.6 MEQ/L
  SODIUM: 147 MEQ/L
  TOTAL BILIRUBIN: 0.5 mg/dL
  TOTAL PROTEIN: 5.7 G/DL
  URIC ACID: 2.5 mg/dL
